Where two headings read alike, the source gives them in different places.
How the values were obtained:
Format in all cases: cell-based, Periplaneta americana
[1] = test system: cockroach Dorsal Unpaired Median (DUM) neurons; conditions: for origin of the intracellular calcium rise: with caffeine, omega-conotoxin, pirenzepine
[2] = test system: cockroach Dorsal Unpaired Median (DUM) neurons; assay: Whole-cell patch-clamp, current-clamp: DUM neuron spontaneous electrical activity; conditions: 10^-8 M
Experimental: (§1) Experiments were carried out on cockroach Dorsal Unpaired Median (DUM) neurons. Cockroach neuronal preparations are commonly used as biomedical models for vertebrates and invertebrates and DUM neurons are, furthermore, electrophysiologically and pharmacologically well characterized since most of the biophysical and pharmacological properties of ionic currents and receptors underlying and modulating their spontaneous action potentials have been established by using the well-known patch-clamp technique.
(§2) Adult male cockroaches, Periplaneta americana (see FIG. 1), are taken from our laboratory colonies, which are maintained under standard conditions (29° C., photoperiod of 12 h light/12 h dark). Animals are immobilized dorsal-side up on a dissection dish. The dorsal cuticle, gut and some dorso-longitudinal muscles are removed to allow access to the ventral nerve cord. The abdominal nerve cord and its terminal abdominal ganglion (TAG), carefully dissected under a binocular microscope, are placed in normal saline. Animal care and handling procedures are in accordance with French institutional and national health guidelines. […]
(§3) Electrical activity and neonicotinoïd-induced inward currents are recorded using the patch clamp technique in the whole-cell recording configuration under current-clamp and voltage-clamp mode, respectively. […] Signals are recorded with an Axopatch 200A amplifier. […]

[3] = test system: cockroach Dorsal Unpaired Median (DUM) neurons; assay: Whole-cell patch-clamp, voltage-clamp: thiamethoxam-induced inward current in DUM neurons; conditions: holding potential -50 mV
Experimental: as §1, §2, §3

[4] = test system: cockroach Dorsal Unpaired Median (DUM) neurons; assay: Voltage-clamp thiamethoxam-induced current in DUM neurons after pretreatment with acetylcholine
Experimental: Electrical activity and neonicotinoïd-induced inward currents are recorded using the patch clamp technique in the whole-cell recording configuration under current-clamp and voltage-clamp mode, respectively. Patch-clamp electrodes are pulled from borosilicate glass capillary tubes (GC150T-10) using a P-97 model puller. Patch pipettes have resistances ranging from 1 to 1.2 MΩ when filled with internal pipette solution. The liquid junction potential between extracellular and intracellular solutions is always corrected before the formation of a giga Ohm seal (>3GΩ). Signals are recorded with an Axopatch 200A amplifier. […] Under voltage-clamp conditions, DUM neuron somata are voltage-clamped at a steady state holding potential of −50 mV to measure the effects of thiamethoxam applied alone and after pretreatment with IR3535® (10^−8 M). Experiments are carried out at room temperature.
Acetylcholine at a concentration of 10^−3M has been applied to DUM neurons during one second, three minutes before testing thiamethoxam at 10^−7M, 10^−6M and 10^−5M on DUM neurons under the same protocol as example 3.

SMILES: CCN(CC)C(=O)c1cccc(C)c1 [DEET, N,N-diethyl-3-methylbenzamide]
- effect on intracellular calcium concentration ([1]; DEET at concentrations higher than 10^-7 M): an important decrease of the intracellular calcium concentration
- ratio of emitted fluorescence (340 nm/380 nm) ([1]; DEET between 3.10-8 M and 3.10-7 M): above 0.6
- concentration at which the intracellular calcium elevation reaches a maximum ([1]; DEET, DUM neurons): 10^−7 M
- maximum value of ratio of emitted fluorescence (340 nm/380 nm) ([1]; DEET, maximum at 10^-7 M): 0.7

SMILES: CCCCN(CCC(=O)OCC)C(C)=O [IR3535®, 3-[N-Butyl-N-acetyl]-aminopropionic acid, ethyl ester]
- effect on membrane potential and spontaneous action potential discharge frequency [2]: induces a significant membrane depolarization associated with an increase of the spontaneous action potential discharge frequency
- lower concentration which produces a significant elevation of intracellular calcium concentration ([1]; DUM neurons): 10^−8 M
- concentration at which the zone I intracellular calcium increase reaches a maximum ([1]; DUM neurons, zone I): 10^−8 M
- concentration producing the maximum effect on intracellular calcium (zone III) ([1]; DUM neurons, zone III): 3.10^−5 M
- origin of the intracellular calcium rise ([1]; IR3535 at 10^-8 M): results from extracellular calcium through plasma membrane voltage-dependent calcium channels via M1/M3 mAChR sub-type modulation
- origin of the intracellular calcium rise ([1]; higher concentrations of IR3535 (10^-5 M)): both extracellular calcium and calcium released from internal stores are involved

SMILES: CN1COCN(Cc2cnc(Cl)s2)/C1=N\[N+](=O)[O-] [thiamethoxam]
- mean inward current amplitude relative to thiamethoxam applied alone ([3]; thiamethoxam 10^-6 M after pretreatment with IR3535 10^-8 M): about 6 fold
- induced inward current amplitude ([3]; thiamethoxam 10^-6 M alone, n=3-4): induces an inward current with small amplitudes
- current amplitude, rank among tested concentrations ([4]; thiamethoxam 10^-6 M after acetylcholine 10^-3 M): lowest value
- induced current ([4]; thiamethoxam 10^-7, 10^-6, 10^-5 M after acetylcholine 10^-3 M (1 s, 3 min before)): induces a current
- current amplitude, rank among tested concentrations ([4]; thiamethoxam 10^-7 M after acetylcholine 10^-3 M): highest value
- induced current ([4]; thiamethoxam alone, no acetylcholine pretreatment): no current has been recorded
